One data set relates to sodium channel. Kind of data set: Guanidine influx assay (14C-guanidine radiotracer flux, in vitro). As to conditions: guanidine influx assay using a known cell line that expresses a sodium channel; activity level class. In kind it is cell-based, human or rat. A digest of the protocol:
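Human or rat sodium channels stably expressed in endogenous or recombinant cells, plated ~100,000 cells/well for 20-24 h at 37 °C. Cells were treated with test agent in low-sodium choline HEPES saline plus aconitine and 14C-guanidine at ambient temperature, washed, and counted by scintillation; IC50 from 4-parameter logistic fit.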

The next data set deals with CYP3A4 (Homo sapiens, UniProt P08684). In words: Cytochrome P450 (CYP450) Inhibition Assay, CYP3A4 (Vivid fluorescence, BOMCC substrate). As to conditions: human, P450 Baculosomes (recombinant CYP3A4), probe BOMCC (Vivid substrate).

Usually IC50 stands for the point on the concentration scale where inhibition reaches its midpoint. For orientation: melting point means the temperature of the solid-liquid transition. As a reminder, the inhibition is how much of the control response was suppressed.

Chain of CYP3A4 (P08684 whole entry): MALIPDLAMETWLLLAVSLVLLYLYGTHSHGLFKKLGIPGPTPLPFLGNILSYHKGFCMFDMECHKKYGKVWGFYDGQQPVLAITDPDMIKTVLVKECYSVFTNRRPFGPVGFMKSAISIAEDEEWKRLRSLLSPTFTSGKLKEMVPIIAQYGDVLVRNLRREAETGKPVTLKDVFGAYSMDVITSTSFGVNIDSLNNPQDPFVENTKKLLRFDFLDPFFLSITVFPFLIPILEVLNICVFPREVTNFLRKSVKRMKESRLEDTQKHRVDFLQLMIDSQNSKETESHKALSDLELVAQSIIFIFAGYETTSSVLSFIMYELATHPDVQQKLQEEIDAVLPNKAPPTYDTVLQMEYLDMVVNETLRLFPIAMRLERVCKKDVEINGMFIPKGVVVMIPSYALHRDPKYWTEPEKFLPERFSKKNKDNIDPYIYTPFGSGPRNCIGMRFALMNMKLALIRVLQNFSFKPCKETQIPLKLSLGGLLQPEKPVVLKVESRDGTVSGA

The compound `Cn1c(=O)oc2cc3c(cc21)OCC31C(=O)N(C(c2ccccc2)c2ccccc2)c2ccccc21` (stereo not drawn) [Example 2.16, 1′-(diphenylmethyl)-3-methylspiro[furo[2,3-f][1,3]benzoxazole-7,3′-indole]-2,2′(1′H,3H)-dione] came in with a melting point of 228 to 229 °C. For the same compound, the IC50 in the data set on sodium channel was at least 10000 nM. Moreover, the inhibition at 10 µM at CYP3A4 is under 50%.
On the same counts, the results for `CC(C)CCN1C(=O)C2(COc3cc4c(cc32)OCCO4)c2c1ccc1ncsc21` (stereo not drawn) [Example 2.24, 6′-isopentyl-3,7-dihydro-2H-spiro[benzofuro[5,6-b][1,4]dioxine-8,8′-thiazolo[5,4-e]indol]-7′(6′H)-one] are 169 to 171 °C, 1 to 100 nM and over 50%.
On the same counts, the results for `O=C1N(Cc2ccc(C(F)(F)F)o2)c2cc3c(cc2C12COc1cc4c(cc12)CCO4)OCCO3` (stereo not drawn) [Example 2.25, 6-((5-(trifluoromethyl)furan-2-yl)methyl)-2,3,5′,6′-tetrahydro-2′H-spiro[f-[1,4]dioxino[2,3-f]indole-8,3′-benzofuro[6,5-b]furan]-7(6H)-one] are 189 to 191 °C, 100 to 1000 nM and over 50%.
On the same counts, the results for `O=C1N(C[C@H]2CCCO2)c2cc3c(cc2C12COc1cc4c(cc12)CCO4)OCCO3` (stereo partly drawn) [Example 2.26, 6-(((R)-tetrahydrofuran-2-yl)methyl)-2,3,5′,6′-tetrahydro-2′H-spiro[[1,4]dioxino[2,3-f]indole-8,3′-benzofuro[6,5-b]furan]-7(6H)-one] are 220 to 225 °C, 1000 to 10000 nM and under 50%.
As for `CN1CCOc2cc3c(cc21)C1(CO3)C(=O)N(Cc2ccc(C(F)(F)F)o2)c2ccccc21.Cl` (stereo not drawn) [Example 2.28, 1-methyl-1′-{[5-(trifluoromethyl)furan-2-yl]methyl}-2,3-dihydro-1H-spiro[furo[3,2-g][1,4]benzoxazine-8,3′-indol]-2′(1′H)-one hydrochloride], the melting point was 105 °C (dec.). For the same compound, the IC50 in the data set with sodium channel is 100 to 1000 nM. The inhibition at 10 µM at CYP3A4 was over 50%.
On the same counts, the results for `CN1CCOc2cc3c(cc21)C1(CO3)C(=O)N(C[C@H]2CCCO2)c2ccccc21.Cl` (stereo partly drawn) [Example 2.29, 1-methyl-1′-[(2R)-tetrahydrofuran-2-ylmethyl]-2,3-dihydro-1H-spiro[furo[3,2-g][1,4]benzoxazine-8,3′-indol]-2′(1′H)-one hydrochloride] are > 135 °C (dec.), 100 to 1000 nM and under 50%.
On the same counts, the results for `CN1CCOc2cc3c(cc21)OCC31C(=O)N(C[C@H]2CCCO2)c2ccccc21` (stereo partly drawn) [Example 2.30, 4-methyl-1′-[(2R)-tetrahydrofuran-2-ylmethyl]-3,4-dihydro-2H-spiro[furo[2,3-g][1,4]benzoxazine-8,3′-indol]-2′(1′H)-one] are 138 to 140 °C, 1000 to 10000 nM and over 50%.
The corresponding values for `O=C1N(Cc2ncccc2C(F)(F)F)c2ccccc2C12COc1cc3c(cc12)OC(F)(F)O3` (stereo not drawn) [Example 2.36, 2,2-difluoro-1′-{[3-(trifluoromethyl)pyridin-2-yl]methyl}spiro[furo[2,3-f][1,3]benzodioxole-7,3′-indol]-2′(1′H)-one] are 200 to 201 °C, 1000 to 10000 nM and under 50%.
As for `COc1ccc(CN2C(=O)C3(COc4cc5c(cc43)CCO5)c3c2ccc2ncccc32)cc1` (stereo not drawn) [Example 2.38, 3′-(4-methoxybenzyl)-5,6-dihydrospiro[benzo[1,2-b:5,4-b′]difuran-3,1′-pyrrolo[3,2-f]quinolin]-2′(3′H)-one], the melting point lay in the range of 169 to 170 °C. Also, the IC50 with sodium channel is 100 to 1000 nM. Further, at CYP3A4, the inhibition at 10 µM is over 50%.
On the same counts, the results for `COc1ccc(CN2C(=O)C3(COc4cc(O)c(C#N)cc43)c3ccccc32)cc1` (stereo not drawn) [Example 2.39, 6-hydroxy-1′-(4-methoxybenzyl)-2′-oxo-1′,2′-dihydrospiro[1-benzofuran-3,3′-indole]-5-carbonitrile] are 112 to 114 °C, 1000 to 10000 nM and over 50%.
The corresponding values for `COc1ccc(CN2C(=O)C3(COc4cc(F)c(C#N)cc43)c3ccccc32)cc1` (stereo not drawn) [Example 2.40, 6-fluoro-1′-(4-methoxybenzyl)-2′-oxo-1′,2′-dihydrospiro[1-benzofuran-3,3′-indole]-5-carbonitrile] are 142 to 143 °C, 1000 to 10000 nM and over 50%.
Regarding `COc1ccc(CN2C(=O)C3(COc4cc5c(C)noc5cc43)c3ccccc32)cc1` (stereo not drawn) [Example 2.41, 1′-(4-methoxybenzyl)-3-methylspiro[furo[2,3-f][1,2]benzisoxazole-7,3′-indol]-2′(1′H)-one], the melting point was 183 to 184 °C. Further, the IC50 in the data set on sodium channel was 1000 to 10000 nM. For the same compound, the inhibition at 10 µM on CYP3A4 is over 50%.
Turning to `O=C1N(c2ccc(F)cc2)c2ccccc2C12COc1cc3c(cc12)OCCO3` (stereo not drawn) [Example 2.45, 1′-(4-fluorophenyl)-2,3-dihydrospiro[furo[2,3-g][1,4]benzodioxine-8,3′-indol]-2′(1′H)-one], the melting point lay in the range of 210 to 212 °C. In the data set on sodium channel, the IC50 was in the range of 1 to 100 nM. Moreover, the inhibition at 10 µM at CYP3A4 is under 50%.
On the same counts, the results for `O=C1N(Cc2ccccn2)c2ccc(Br)cc2C12COc1cc3c(cc12)OCCO3` (stereo not drawn) [Example 2.49, 5′-bromo-1′-(pyridin-2-ylmethyl)-2,3-dihydrospiro[furo[2,3-g][1,4]-benzodioxine-8,3′-indol]-2′(1′H)-one] are over 250 °C, 1 to 100 nM and over 50%.
The corresponding values for `N#Cc1ccc2c(c1)C1(COc3cc4c(cc31)OCCO4)C(=O)N2Cc1ccccn1` (stereo not drawn) [Example 2.50, 2′-oxo-1′-(pyridin-2-ylmethyl)-1′,2,2′,3-tetrahydrospiro[furo[2,3-g][1,4]benzodioxine-8,3′-indole]-5′-carbonitrile] are 198 to 199 °C, 1 to 100 nM and under 50%.
Take `O=C1N(C(c2ccccc2)c2ccccc2)c2ccccc2C12COc1cc(F)c(F)cc12` (stereo not drawn) [Example 2.61, 1′-(diphenylmethyl)-5,6-difluorospiro[1-benzofuran-3,3′-indol]-2′(1′H)-one]: the melting point fell in the range of 213 to 216 °C. Moreover, the IC50 with sodium channel is at least 10000 nM. For the same compound, the inhibition at 10 µM at CYP3A4 is under 50%.
On the same counts, the results for `COc1ccc2c(c1OC)C1(COc3cc4c(cc31)OCCO4)C(=O)N2Cc1ccc(C(F)(F)F)o1` (stereo not drawn) [Example 2.63, 4′,5′-dimethoxy-1′-{[5-(trifluoromethyl)furan-2-yl]methyl}-2,3-dihydrospiro[furo[2,3-g][1,4]benzodioxine-8,3′-indol]-2′(1′H)-one] are 62 to 65 °C, 100 to 1000 nM and over 50%.
The corresponding values for `COCCOCCN1C(=O)C2(COc3cc4c(cc32)OCCO4)c2c(OC)ccc(OC)c21` (stereo not drawn) [Example 2.64, 4′,7′-dimethoxy-1′-[2-(2-methoxyethoxy)ethyl]-2,3-dihydrospiro[furo[2,3-g][1,4]benzodioxine-8,3′-indol]-2′(1′H)-one] are 109 to 110 °C, 100 to 1000 nM and under 50%.
Take `O=C1Nc2cccc(Cl)c2C12COc1cc3c(cc12)CCO3` (stereo not drawn) [Example 3.1, 4′-chloro-5,6-dihydrospiro[benzo[1,2-b:5,4-b′]difuran-3,3′-indol]-2′(1′H)-one]: the melting point is over 200 °C. Further, in the data set with sodium channel, the half-maximal inhibitory concentration (IC50) fell in the range of 1 to 100 nM. The inhibition at 10 µM at CYP3A4 was over 50%.
On the same counts, the results for `Cc1cc2c(cc1C)C1(CO2)C(=O)Nc2ccccc21` (stereo not drawn) [Example 3.3, 5,6-dimethylspiro[1-benzofuran-3,3′-indol]-2′(1′H)-one] are 206 to 207 °C, 100 to 1000 nM and over 50%.
Take `O=C1Nc2ccc(F)cc2C12COc1cc3c(cc12)CCO3` (stereo not drawn) [Example 3.4, 5′-fluoro-5,6-dihydrospiro[benzo[1,2-b:5,4-b′]difuran-3,3′-indol]-2′(1′H)-one]: the melting point is 257 to 259 °C. Besides, the IC50 with sodium channel lay within 1000 to 10000 nM. At CYP3A4, the inhibition at 10 µM is over 50%.
On the same counts, the results for `O=C1Nc2cc(F)ccc2C12COc1cc3c(cc12)CCO3` (stereo not drawn) [Example 3.5, 6′-fluoro-5,6-dihydrospiro[benzo[1,2-b:5,4-b′]difuran-3,3′-indol]-2′(1′H)-one] are 249 to 251 °C, 1000 to 10000 nM and over 50%.
The corresponding values for `Cc1noc2cc3c(cc12)C1(CO3)C(=O)Nc2ccccc21` (stereo not drawn) [Example 3.6, 3-methylspiro[furo[3,2-f][1,2]benzisoxazole-5,3′-indol]-2′(1′H)-one] are 226 to 227 °C, 100 to 1000 nM and under 50%.
The corresponding values for `COc1cc2c(cc1F)C1(CO2)C(=O)Nc2ccccc21` (stereo not drawn) [Example 3.7, 5-fluoro-6-methoxyspiro[1-benzofuran-3,3′-indol]-2′(1′H)-one] are 222 to 225 °C, 1000 to 10000 nM and under 50%.
With `O=C1Nc2ccccc2C12COc1cc3c(cc12)OCCO3` (stereo not drawn) [Example 3.10, 2,3-dihydrospiro[furo[2,3-g][1,4]benzodioxine-8,3′-indol]-2′(1′H)-one], the melting point was over 250 °C. In addition, the IC50 with sodium channel lay in the range of 1 to 100 nM. Besides, at CYP3A4, the inhibition at 10 µM is under 50%.

These data come from US8263606B2 (Xenon Pharmaceuticals Inc., priority 2008, dated 2012).
